Measurements reported in PMC7115430 (European Journal of Medicinal Chemistry, 2014).
Read-outs that look alike come from different tables or passages of the source.

Legend:
in vitro = details: dog
Reovirus-1 = assay: organism not typed; assay type: cell-based; details: Vero, read-out: EC50 Reovirus-1
Influenza B = assay: microbe, parasite or virus in culture; assay type: cell-based; details: MDCK
Para-influenza-3 virus = assay: organism not typed; assay type: cell-based; details: Vero, read-out: EC50 Para-influenza-3 virus
Vero cells = details: microscopically detectable alteration of normal cell morphology
Sindbis virus = assay: microbe, parasite or virus in culture; assay type: cell-based; details: Vero, read-out: EC50 Sindbis virus
Punta toro virus = assay: microbe, parasite or virus in culture; assay type: cell-based; details: Vero, read-out: EC50 Punta toro virus
[1] = read-out: Antiviral EC50 Influenza B MTS
[2] = read-out: Antiviral EC50 Influenza B Visual CPE score

Compound	CC50 (in vitro)	EC50 (Reovirus-1)	EC50 (Influenza B; [1])	EC50 (Influenza B; [2])	EC50 (Para-influenza-3 virus)	Minimum cytotoxic concentration (Vero cells)	EC50 (Sindbis virus)	EC50 (Punta toro virus)
NC12CC3CC(CC(C3)C1)C2 [Amantadine]	> 500 µM	–	–	–	–	–	–	–
NC(=O)c1ncn([C@@H]2O[C@H](CO)[C@@H](O)[C@H]2O)n1 [Ribavirin]	–	> 250 µM	9.6 ± 0.98 µM	9 ± 0.56 µM	112 µM	>250 µM	> 250 µM	–
Nc1ncnc2c1ncn2C[C@H](O)CO [(S)-DHPA]	–	> 250 µM	–	–	> 250 µM	>250 µM	> 250 µM	> 250 µM
CCC(CC)O[C@@H]1C=C(C(=O)O)C[C@H](N)[C@H]1NC(C)=O [Oseltamivir carboxylate]	> 100 µM	–	6.2 ± 0.33 µM	4 ± 0.11 µM	–	–	–	–
CC(N)C12CC3CC(CC(C3)C1)C2 (stereo not shown) [Rimantadine]	> 500 µM	–	–	–	–	–	–	–
